In ChEMBL document CHEMBL2380262, “Pyrrolidine analogs of GZ-793A: synthesis and evaluation as inhibitors of the vesicular monoamine transporter-2 (VMAT2)” (Bioorg Med Chem Lett, 2013):

Key:
[1] = target: T1, Synaptic vesicular amine transporter (Rattus norvegicus, UniProt Q01827); assay: Displacement of [3H]DTBZ from VMAT2 in Sprague-Dawley rat synaptic vesicle membranes after 30 mins by scintillation counting analysis; type: cell membranes, Membrane
[2] = target: T1, Synaptic vesicular amine transporter; assay: Inhibition of VMAT2-mediated [3H]DA uptake in rat striatal synaptic vesicles by liquid scintillation spectroscopic analysis

T1 sequence (Q01827 whole entry): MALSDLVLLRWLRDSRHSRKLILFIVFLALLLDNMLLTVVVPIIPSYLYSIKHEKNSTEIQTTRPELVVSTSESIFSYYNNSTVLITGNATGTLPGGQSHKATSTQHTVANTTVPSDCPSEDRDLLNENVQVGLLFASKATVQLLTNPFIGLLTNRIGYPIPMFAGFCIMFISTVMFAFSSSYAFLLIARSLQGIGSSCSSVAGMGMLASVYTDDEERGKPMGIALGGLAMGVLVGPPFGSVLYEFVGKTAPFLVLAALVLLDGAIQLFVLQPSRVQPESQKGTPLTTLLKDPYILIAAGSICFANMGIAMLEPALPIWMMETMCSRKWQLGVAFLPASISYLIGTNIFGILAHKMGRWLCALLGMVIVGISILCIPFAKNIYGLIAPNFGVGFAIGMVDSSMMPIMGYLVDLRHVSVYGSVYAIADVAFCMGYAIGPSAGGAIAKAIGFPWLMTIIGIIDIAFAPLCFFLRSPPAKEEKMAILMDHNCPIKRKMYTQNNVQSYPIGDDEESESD

SMILES	Ki [1] [µM]	Ki [2] [µM]
COc1ccccc1CC[C@@H]1CC[C@H](CCc2ccccc2OC)N1C[C@@H](O)CO	2.35	0.27
OC[C@H](O)CN1[C@H](CCc2ccccc2)CC[C@@H]1CCc1ccccc1	5.91	0.279
COc1ccc(CC[C@@H]2CC[C@H](CCc3ccc(OC)cc3)N2C[C@@H](O)CO)cc1	3.94	0.049
COc1ccc(CC[C@@H]2CC[C@H](CCc3ccc(OC)c(OC)c3)N2C[C@@H](O)CO)cc1OC	> 100	3.78
OC[C@H](O)CN1[C@H](CCc2ccc3c(c2)OCO3)CC[C@@H]1CCc1ccc2c(c1)OCO2	8.47	0.269
